Measurements: patent publication US20260262643A1, “HERBICIDAL BENZOXAZINES” (FMC CORPORATION, priority 2022, published 2026)

Key:
ragweed [1] = experiment: Test A postemergence; type: in vivo, Ambrosia artemisiifolia; conditions: 1000 g ai/ha, Postemergence; 0 to 100 scale
Summary of the method: (§1)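 Plants were grown in loam and sand and treated preemergence or postemergence (one- to two-leaf stage, 2–10 cm) with compound in solvent plus surfactant. Response was scored against untreated controls after 10 greenhouse days, where 0 means no effect and 100 complete control.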

corn = experiment: Test A postemergence; type: in vivo, Zea mays; conditions: 1000 g ai/ha, Postemergence; 0 to 100 scale
Summary of the method: as §1

barnyardgrass [2] = experiment: Test A postemergence; type: in vivo, Echinochloa crusgalli; conditions: 1000 g ai/ha, Postemergence; 0 to 100 scale
Summary of the method: as §1

barnyardgrass [3] = experiment: Test A preemergence; type: in vivo, Echinochloa crusgalli; conditions: 1000 g ai/ha, 0 to 100 scale (0 no effect, 100 complete control), 10 days
Summary of the method: as §1

ryegrass, Italian [4] = experiment: Test A postemergence; type: in vivo, Lolium multiflorum; conditions: 1000 g ai/ha, Postemergence; 0 to 100 scale
Summary of the method: as §1

ragweed [5] = experiment: Test A preemergence; type: in vivo, Ambrosia artemisiifolia; conditions: 1000 g ai/ha, 0 to 100 scale (0 no effect, 100 complete control), 10 days
Summary of the method: as §1

Pigweed, Redroot [6] = experiment: Test A postemergence; type: in vivo, Amaranthus retroflexus; conditions: 1000 g ai/ha, Postemergence; 0 to 100 scale
Text: (§2) Seeds of plant species selected from barnyardgrass (Echinochloa crusgalli), blackgrass (Alopecurus myosuroides), corn (Zea mays), foxtail, giant (giant foxtail, Setaria faberi), goosegrass (Eleusine indica), kochia (Bassia scoparia), oat, wild (wild oat, Avena fatua), pigweed, palmer (palmer amaranth, palmer pigweed, Amaranthus palmeri), Pigweed, Redroot (redroot pigweed, Amaranthus retroflexus), ragweed (common ragweed, Ambrosia artemisiifolia), ryegrass, Italian (italian ryegrass, Lolium multiflorum), soybean (Glycine max), and wheat (Triticum aestivum) were planted into a blend of loam soil and sand and treated preemergence with a directed soil spray using test chemicals formulated in a non-phytotoxic solvent mixture which included a surfactant. At the same time, plants selected from these crops and weed species and also galium (catchweed bedstraw, Galium aparine) and horseweed (Erigeron canadensis) were planted in pots containing the same blend of loam soil and sand and treated with postemergence applications of test chemicals formulated in the same manner. Plants ranged in height from 2 to 10 cm and were in the one- to two-leaf stage for the postemergence treatment. Treated plants and untreated controls were maintained in a greenhouse for 10 days, after which time all treated plants were compared to untreated controls and visually evaluated for injury. Plant response ratings, summarized in Table A, are based on a 0 to 100 scale where 0 is no effect and 100 is complete control. A dash (-) response means no test result.

foxtail, giant [7] = experiment: Test A preemergence; type: in vivo, Setaria faberi; conditions: 1000 g ai/ha, 0 to 100 scale (0 no effect, 100 complete control), 10 days
Summary of the method: as §1

kochia [8] = experiment: Test A preemergence; type: in vivo, Bassia scoparia; conditions: 1000 g ai/ha, 0 to 100 scale (0 no effect, 100 complete control), 10 days
Summary of the method: as §1

kochia [9] = experiment: Test A postemergence; type: in vivo, Bassia scoparia; conditions: 1000 g ai/ha, Postemergence; 0 to 100 scale
Summary of the method: as §1

foxtail, giant [10] = experiment: Test A postemergence; type: in vivo, Setaria faberi; conditions: 1000 g ai/ha, Postemergence; 0 to 100 scale
Summary of the method: as §1

wheat = experiment: Test A postemergence; type: in vivo, Triticum aestivum; conditions: 1000 g ai/ha, Postemergence; 0 to 100 scale
Summary of the method: as §1

ryegrass, Italian [11] = experiment: Test A preemergence; type: in vivo, Lolium multiflorum; conditions: 1000 g ai/ha, 0 to 100 scale (0 no effect, 100 complete control), 10 days
Summary of the method: as §1

Pigweed, Redroot [12] = experiment: Test A preemergence; type: in vivo, Amaranthus retroflexus; conditions: 1000 g ai/ha, 0 to 100 scale (0 no effect, 100 complete control), 10 days
Text: as §2

blackgrass = experiment: Test A postemergence; type: in vivo, Alopecurus myosuroides; conditions: 1000 g ai/ha, Postemergence; 0 to 100 scale
Summary of the method: as §1

galium = experiment: Test A postemergence; type: in vivo, Galium aparine; conditions: 1000 g ai/ha, Postemergence; 0 to 100 scale
Summary of the method: as §1

SMILES	Plant response rating, Ragweed (ragweed [1])	Plant response rating, Corn (corn)	Plant response rating, Barnyardgrass (barnyardgrass [2])	Plant response rating, Barnyardgrass (barnyardgrass [3])	Plant response rating, Ryegrass, Italian (ryegrass, Italian [4])	Plant response rating, Ragweed (ragweed [5])	Plant response rating, Pigweed, Redroot (Pigweed, Redroot [6])	Plant response rating, Foxtail, Giant (foxtail, giant [7])	Plant response rating, Kochia (kochia [8])	Plant response rating, Kochia (kochia [9])	Plant response rating, Foxtail, Giant (foxtail, giant [10])	Plant response rating, Wheat (wheat)	Plant response rating, Ryegrass, Italian (ryegrass, Italian [11])	Plant response rating, Pigweed, Redroot (Pigweed, Redroot [12])	Plant response rating, Blackgrass (blackgrass)	Plant response rating, Galium (galium)
CC1CN(C(=O)c2cccc(-n3cncn3)c2)c2cc(F)ccc2O1 (stereo not shown) [Compound 24]	0	10	30	50	60	0	0	30	0	10	50	30	100	0	60	–
CC1CN(C(=O)c2cccc(-n3cncn3)c2)c2ccccc2O1 (stereo not shown) [Compound 31]	0	30	30	80	70	20	0	100	30	20	80	40	90	0	50	–
CCC1CN(C(=O)c2ccnc(-n3cncn3)c2)c2cccc(I)c2O1 (stereo not shown) [Compound 17]	0	0	0	0	0	0	0	0	30	10	0	0	0	100	0	0
C=Cc1cccc2c1OC(C)CN2C(=O)c1cccc(-n2cncn2)c1 (stereo not shown) [Compound 26]	0	0	0	0	0	0	0	0	0	0	0	0	0	0	0	–
C[C@H]1CN(C(=O)c2cccc(-n3cnnc3)c2)c2cccc(Cl)c2O1 [Compound 128]	30	0	30	0	0	0	0	50	40	0	20	0	60	0	30	30
C[C@H]1CN(C(=O)c2cccc(-n3cccn3)c2)c2cccc(Cl)c2O1 [Compound 129]	0	0	20	20	0	0	70	0	20	10	10	0	50	20	30	30
C[C@H]1CN(C(=O)c2cccc(-c3ccncc3)c2)c2cccc(Cl)c2O1 [Compound 123]	0	0	20	40	30	30	60	0	30	20	10	0	30	30	20	50
CC1CN(C(=O)c2cccc(-n3cncn3)c2)c2ccc(F)cc2O1 (stereo not shown) [Compound 23]	20	30	10	30	0	0	0	50	0	10	10	20	30	0	30	–
